Source: a melting point compilation (Tetko et al.; mined from patent text by program, amines drawn as free bases though some values may be those of a salt)

SMILES	melting point [°C]
O=C1NCC(Cc2ccc(Oc3ccccc3)cc2)O1 (configuration not stated)	118 to 119
O=C(c1ccccc1)c1nc(-c2ccncc2)cs1	135 to 136
Nc1nc2c(ncn2C2CC(CO)C2CO)c(=O)[nH]1 (configuration not stated)	91 to 92
CCc1nc(NC(=O)C2=C(O)c3ccc4ccccc4c3S(=O)(=O)N2)sc1C	268 to 270
Nc1ccc([C@@H](O)CNC[C@@H]2CCc3cc(S(=O)(=O)Nc4ccc(-n5nnn(CCCC6CCCC6)c5=O)cc4)ccc3O2)cn1	99.3 to 99.7
O=C(CC1CCOCC1)N[C@H]1CC[C@H](CCN2CCC(c3cccc4c3CCO4)CC2)CC1	191
CS(=O)(=O)c1ccc(-c2sc(-c3ccc(F)c(Cl)c3)nc2-c2ccc(F)cc2)cc1	165 to 167
CC1(O)CC(C)(C)c2ccc(Oc3ccc([N+](=O)[O-])cc3)cc2O1 (configuration not stated)	159 to 160
CNC(=S)C1(c2ccc3ccccc3n2)CCCS1 (configuration not stated)	124
N#CC(=C1C=CC(=NO[Si](c2ccccc2)(c2ccccc2)c2ccccc2)C=C1)c1ccccc1	161 to 165
Cc1ccc(C2=CCCNC2)nc1C	102 to 104
CC1CN(S(=O)(=O)c2cccc(C(=O)O)c2)C(C)CN1S(=O)(=O)c1cccc(C(=O)O)c1 (configuration not stated)	223 to 227
COCCCOc1ccc(CCCO)c(Oc2ncc(C(F)(F)F)cc2Cl)c1	68.7 to 70.9
O=C(NCCO)c1cccc(-c2cccc3cc(Cc4cc(F)cc(Cl)c4)sc23)n1	139 to 140
CN1CC(CO)Cc2ccc(NC(=O)/C=C/c3ccc(C(F)(F)F)cc3)cc21 (configuration not stated)	167 to 169
O=C(Nc1n[nH]c(=S)s1)N[C@@H](Cc1ccc(F)cc1)C(=O)N1CCN(c2ccccn2)CC1	240 to 242
CCC1(CO)CS(=O)(=O)c2ccccc2C(c2ccccc2)=N1 (configuration not stated)	170 to 171
OC(CCN1CCC(c2ccc(F)cc2)CC1)c1ccc(Cl)cc1 (configuration not stated)	108 to 110
CCc1nc2c(N)nc3ccccc3c2n1CC#Cc1ccc([N+](=O)[O-])cc1	190 to 206
CCOC(=O)N1CCC(=C2c3ccccc3CCn3c(C(=O)O)cnc32)CC1	182
N#Cc1cc2c(cc1C(F)(F)F)[nH]c(=O)c(=O)n2OC(=O)c1ccccc1	186
CN1c2ccccc2NC(=S)c2cscc21	203 to 204
Cc1ccc(Cl)cc1-c1cccc2c1OC(CN)C2 (configuration not stated)	146 to 150
C#CCOc1cc(Oc2ccc(Cl)cc2Cl)ncn1	107
CC(=O)OCCSCn1cnc2c(Cl)ncnc21	82 to 87
CC(C)(C)OC(=O)NCc1ccccc1Br	51 to 53

SMILES	melting point [°C]
CC[C@H]1CN(c2c(F)c(N)c3c(=O)c(C(=O)O)cn(C4CC4)c3c2F)C[C@H]1CNCCC(=O)C(F)(F)F (relative stereo)	145 to 146
CCCCCCCCCCCCc1cn(C(C(=O)O)c2ccccc2)cn1 (configuration not stated)	110 to 118
O=C(O)C1=Cc2cc(Cl)cc(C#CCCCCl)c2OC1C(F)(F)F (configuration not stated)	154 to 156
Nc1ccc2c(c1)ncn2-c1ccccc1	272 to 274
O=C(c1ccc([N+](=O)[O-])cc1)N1Cc2cccn2-c2ccccc21	174 to 178
CN1c2ccccc2C(c2ccccc2Br)=Nc2cccnc21	139 to 140
NS(=O)(=O)Nc1ccc(CCN2CCC(COC(c3ccccc3)c3ccccc3)CC2)cc1	172 to 174
C#CC1(O)C=CC2C3CCC4=CC(=O)CC(OC(C)=O)C4C3CCC21CC (configuration not stated)	123 to 126
COc1cccc(C2CCCCNC2=O)c1 (configuration not stated)	116 to 117
COc1ccc(N=C(C#CSc2ccccc2)N2CCN(C)CC2)cc1	160
Cc1ccc(S(=O)(=O)OCC2COc3cc(C)ccc3O2)cc1 (configuration not stated)	84
Cc1cc(C)c(N2CCCCC2=S)c(Cl)c1	147 to 148
CC(=O)Oc1cc(S(=O)(=O)c2ccccc2)ccc1OCc1ccccc1	107 to 111
COc1cnn(CN(C(=O)CCl)c2c(C)cccc2C)c1	115 to 116
Nc1ccc(S(=O)(=O)c2ccnc(N3CCCC3)c2)cc1	186 to 187
O=C1CCN(Cc2ccccc2)CC1C1c2ccccc2Oc2ccccc21 (configuration not stated)	124 to 125
N#CC(C#N)=C1N(CCCCN2CCCCC2)CCN1CCCCN1CCCCC1	96 to 98
CC(=O)NC(CCc1ccc(C(O)CCCCCCc2ccccc2)cc1)(CO[Si](C)(C)C(C)(C)C)CO[Si](C)(C)C(C)(C)C (configuration not stated)	121 to 122
CN1CCN(c2cccc3c2C[C@H](NC(=O)C2CCCCC2)CC3)CC1	183 to 184
CCOC(=O)c1ccc2nc(N[C@@H]3CCc4ccccc43)ccc2c1	137
C=CCc1cc(C(=O)OC)ccc1O	78 to 82
Cc1ccc2c(c1)CCN1C2CC(=O)C2CCCCC21 (configuration not stated)	101 to 121
COc1ccc(OC)c(C(=O)N2CCc3cc(O)ccc3C2)c1	61 to 86
CCCCCCCCCCCCOc1ccc(O)c(C(=O)NNC(=O)c2ccccc2O)c1	244
CC=CCNc1ccc(Oc2nc(OC)cc(OC)n2)c(C(=O)OC)n1	82 to 85
O=C(O)Cn1c(-c2cccc(C(F)(F)F)c2)nc2cccnc21	240 to 242

SMILES	melting point [°C]
CNS(=O)(=O)c1cc(-n2nc3ccc(Cl)cn3c2=O)c(F)cc1C#N	154 to 157
CCCOc1cc(Cl)ccc1-c1nc2ncn(C)c(=S)n2n1	160 to 162
Oc1ccc2nc(-c3ccc(O)c(F)c3)cc(-c3ccc(C(F)(F)F)cc3)c2c1	299 to 300
CNC(C)CCC1(C(N)=O)c2ccccc2-c2ccccc21 (configuration not stated)	178 to 180
Cn1cnc2cc(NC(=O)c3cc4cc(F)cnc4n3Cc3cccc(F)c3)ccc21	266 to 268
CC12CCC(I)CC1=CCC1C2CCC2(C)C1CCC21OCCO1 (configuration not stated)	140 to 141
CCOC(=O)CCCOc1ccc2c(c1)C(=O)CCC2	62 to 63
CC(=O)Nc1cc(N)c(Cl)cc1F	142 to 143
CC(C)(C)OC(=O)N[C@H]1CCN(OCc2ccccc2)C1=O	113 to 114
CCOC=C1C=C(C(C)(C)C)C(=O)C(C(C)(C)C)=C1	114 to 117
COc1ccc(OCc2nc3nccnc3c(=O)[nH]2)cc1	233 to 234
O=C(NNCCc1ccc(O)cc1)OCc1ccccc1	94 to 97
CNC(=O)Oc1c(C)cc(C)c2c1CC(C)C2(C)C (configuration not stated)	130 to 131
Cc1oc(-c2ccc(C(F)(F)F)cc2)nc1-c1ccc2c(Br)c(OCC(=O)O)ccc2c1	212 to 214
Nc1onc2c1CCC2	135
Cc1cc(=O)n(-c2cc3c(cc2F)OC(CC#N)C(=O)N3)c(=O)[nH]1 (configuration not stated)	> 230
CN(C)CCOc1ccccc1NC(=O)c1cccc2[nH]ccc12	110
COC1(c2ccc(C=Cc3cc(F)cc(F)c3NC(=O)C(C)(C)C)cc2)CCOCC1	77 to 79
COc1cccc2c(CCCCNC3COc4c(F)ccc(C(N)=O)c4C3)coc12 (configuration not stated)	138 to 141
COC(=O)c1cccc(F)c1S(C)(=O)=O	116
Cc1cccc(C(=O)O)c1Nc1ccccc1C(=O)O	258 to 259
O=C(O)CCOc1ccccc1CNC(=O)C1Cc2ccccc2N1S(=O)(=O)c1ccc(-c2cccc(C(F)(F)F)c2)cc1 (configuration not stated)	100
CS(=O)(=O)c1ccc(C(=O)c2cnoc2C2CC2)c(Cl)c1	116
O=C(Nc1ccc(Cl)cc1)OCCOc1ccc(Oc2ccccc2)cc1Cl	155 to 156
Cn1nc2nc(C(C)(C)C)[nH]c(=O)c2c1N	285 to 287
NCCN1CCC(Nc2nc3ccccc3n2Cc2ccnc3ccccc23)CC1	196

SMILES	melting point [°C]
CCN(CC)C(=O)[C@@H](C)[C@H]1CC[C@H]2[C@@H]3CCC4=CC(=O)CC[C@]4(C)[C@H]3CC[C@]12C	198 to 199
N#Cc1ccc(N2C(=O)NC3(CCCCC3)C2=O)cc1C(F)(F)F	187
O=C1CCOc2ccc(-c3ccccc3)cc21	74 to 75
O=C1CCCC(=O)C1C(=O)c1ccc(C(F)(F)F)c(N2CCSCC2)n1	106
CNC(=O)c1ccccc1Nc1nc(Nc2ccc3c(n2)CCCCS3)ncc1Cl	169 to 174
O=C(O)C1CCCN2CC(CS)C(=O)N12 (configuration not stated)	146 to 147
CCOC(=O)c1nccc(NC=O)n1	205 to 206
Cc1ccc2[nH]ncc2c1OCc1ccccc1	94 to 95
COC(=O)C1Oc2ccc(Cl)cc2C(c2ccccc2)(C2CCCCC2)O1 (configuration not stated)	142
O=C(O)c1cn(CCCO)c(=O)c2cc(Cl)ccc12	193
O=C(c1ccccc1Cl)c1ccccc1I	62 to 64
CN1C(=O)[C@](C)(C(=O)O)Oc2ccccc21	139 to 142
CCOC(=O)CN(CP(=O)(ONN(C)C)ONN(C)C)C(=O)C(F)(F)F	84.5 to 87.5
O=c1[nH]nc(CN2CC[C@H](OCc3cc(C(F)(F)F)cc(C(F)(F)F)c3)[C@H](c3ccccc3)C2)[nH]1 (relative stereo)	89 to 91
N#CC1c2ccccc2COc2ccc(Cl)cc21 (configuration not stated)	113 to 115
CCCc1c(CCC(=O)O)cnn1Cc1ccc(OCc2nc(-c3ccccc3)oc2C)cc1	158 to 159
COCCn1cc(-c2ccccc2)n(C(=O)c2ccccc2)c1=O	112 to 117
CCC(=O)c1cc(-c2cccc(OCc3ccc(COC(=O)c4ccccc4)c(COC(=O)c4ccccc4)c3)c2)cs1	117
CC1CC(=O)N(c2ccccc2)c2cc(Cl)ccc2N1 (configuration not stated)	167 to 168
COC(C(C)C)C(C)(C)C(=O)Nc1ccc(Cl)cc1 (configuration not stated)	103 to 107
Brc1cccc(Nc2nc(OCC3CCCCC3)c3[nH]cnc3n2)c1	204 to 207
O=C1C2CC=CCN2C(=O)N1c1cc(O)c(Cl)cc1F (configuration not stated)	195 to 197
O=c1ccc(Oc2ccc(Cl)cc2)n[nH]1	202
Cc1cc2c(cc1-c1ccc(F)cc1)NC(=O)CC(c1cccc(-n3ccnc3)c1)=N2	196
